The source of these data is US10342781B2, “Diazole amides” (CHEMOCENTRYX, INC., priority 2012, dated 2019).

One test has as its target T1, CCR1 (Homo sapiens, UniProt P32246).
T1 construct: host or cells: THP-1 myelomonocytic leukemia cells (or freshly isolated monocytes)
T1 sequence (P32246 1-355): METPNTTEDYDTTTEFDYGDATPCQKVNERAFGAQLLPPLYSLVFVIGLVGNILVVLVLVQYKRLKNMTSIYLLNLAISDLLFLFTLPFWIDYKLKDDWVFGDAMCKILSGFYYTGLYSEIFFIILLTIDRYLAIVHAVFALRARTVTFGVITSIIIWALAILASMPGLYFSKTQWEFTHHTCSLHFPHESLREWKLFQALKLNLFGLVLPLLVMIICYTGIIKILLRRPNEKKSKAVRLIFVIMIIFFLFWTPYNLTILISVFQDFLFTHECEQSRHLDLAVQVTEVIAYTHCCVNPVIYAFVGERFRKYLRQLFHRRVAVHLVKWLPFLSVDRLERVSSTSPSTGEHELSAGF
As to the kind of experiment: Chemotaxis (migration) assay. Particulars: THP-1 or monocyte cells, CCR1 chemokine ligand (MIP-1α, CCL15/Leukotactin), 1-2 hours at 37° C. It counts as cell-based. As to the method:
THP-1 cells were obtained from ATCC (TIB-202) and cultured as a suspension in RPMI-1640 medium supplemented with 2 mM L-glutamine, 1.5 g/L sodium bicarbonate, 4.5 g/L glucose, 10 mM HEPES, 1 mM sodium pyruvate, 0.05% 2-mercaptoethanol and 10% FBS. Cells were grown under 5% CO2/95% air, 100% humidity at 37° C. and subcultured twice weekly at 1:5 (cells were cultured at a density range of 2×10^5 to 2×10^6 cells/mL) and harvested at 1×10^6 cells/mL. THP-1 cells express CCR1 and can be used in CCR1 binding and functional assays.
Chemotaxis assays were performed using 5 μm pore polycarbonate, polyvinylpyrrolidone-coated filters in 96-well chemotaxis chambers (Neuroprobe; Gaithersburg, Md.) using chemotaxis buffer (Hank's balanced salt solution (HBSS) and 1% FBS). CCR1 chemokine ligands (i.e., MIP-1α, CCL15/Leukotactin; R&D Systems; Minneapolis, Minn.) are use to evaluate compound mediated inhibition of CCR1 mediated migration. Other chemokines (i.e., SDF-1α; R&D Systems; Minneapolis, Minn.) are used as specificity controls. The lower chamber was loaded with 29 μl of chemokine (i.e., 0.1 nM CCL15/Leukotactin) and varying amounts of compound, the top chamber contained 100,000 THP-1 or monocyte cells in 20 μl. The chambers were incubated 1-2 hours at 37° C., and the number of cells in the lower chamber quantified either by direct cell counts in five high powered fields per well or by the CyQuant assay (Molecular Probes), a fluorescent dye method that measures nucleic acid content and microscopic observation.
One of the primary functions of chemokines is their ability to mediate the migration of chemokine receptor-expressing cells, such as white blood cells. To confirm that a compound of interest inhibited not only CCR1 specific binding and signaling (at least as determined by calcium mobilization assays), but also CCR1 mediated migration, a chemotaxis assay was employed. THP-1 myelomonocytic leukemia cells, which resemble monocytes, as wells as freshly isolated monocytes, were used as targets for chemoattraction by CCR1 chemokine ligands (i.e., MIP-1α, CCL15/leukotactin). Cells were placed in the top compartment of a microwell migration chamber, while MIP-1α (or other potent CCR1 chemokine ligand) and increasing concentrations of a compound of interest was loaded in the lower chamber. […] To ascertain a compound of interest's affinity for CCR1 as well as to confirm its ability to inhibit CCR1 mediated cell migration, inhibitory activity was titered over a 1×10^−10 to 1×10^−4 M range of compound concentrations in this chemotaxis assay. In this assay, the amount of compound was varied; while cell number and chemokine agonist concentrations were held constant. After the chemotaxis chambers were incubated 1-2 hours at 37° C., the responding cells in the lower chamber were quantified by labeling with the CyQuant assay (Molecular Probes), a fluorescent dye method that measures nucleic acid content, and by measuring with a Spectrafluor Plus (Tecan). The computer program Prism from GraphPad, Inc. (San Diego, Ca) was used to calculate IC50 values. IC50 values are those compound concentrations required to inhibit the number of cells responding to a CCR1 agonist by 50%.

The test system of test [1] is inflammatory cells recruited to the inflamed synovial fluid of the knee joints. As to the kind of experiment: Rabbit model of destructive joint inflammation (rabbit LPS study). It counts as in vivo, Female New Zealand rabbits. Particulars: intra-articular LPS (10 ng), dosed orally in 1% methocel 2 hours before and 4 hours after LPS, knees lavaged sixteen hours after LPS. The procedure: A rabbit LPS study was conducted essentially as described in Podolin, et al. J. Immunol. 169(11):6435-6444 (2002). Female New Zealand rabbits (approximately 2 kilograms) were treated intra-articularly in both knees with LPS (10 ng). The compound of interest, for example 1.016, (formulated in 1% methocel) or vehicle (1% methocel) was dosed orally at a 5 ml/kg dose volume at two times (2 hours before the intra-articular LPS injection and 4 hours after the intra-articular LPS injection). Sixteen hours after the LPS injection, knees were lavaged and cells counts were performed. Beneficial effects of treatment were determined by reduction in the number of inflammatory cells recruited to the inflamed synovial fluid of the knee joints.

One may read the IC50 as the concentration needed to halve the response being measured. Higher therefore signals weaker potency. With `Cc1nc(C(F)(F)F)cn1C(C)C(=O)Nc1nnn(-c2ccc(Cl)cc2)c1C(C)C` (stereo not drawn) [1.001], the IC50 on CCR1 was ≤ 100 nM.
Same read-out and setting: as for `Cc1nc(C(F)(F)F)cn1C(C)C(=O)Nc1cnn(-c2ccc(Cl)cc2)c1C1CC1` (stereo not drawn) [1.002], the figure is 100 to 10000 nM; as for `Cc1nc(C(F)(F)F)cn1C(C)C(=O)Nc1cnn(-c2ccc(F)cc2)c1N(C)C` (stereo not drawn) [1.003], 100 to 10000 nM; as for `Cc1nc(C(F)(F)F)cn1C(C)C(=O)Nc1cnn(-c2ccc(F)cc2)c1Cl` (stereo not drawn) [1.004], 100 to 10000 nM.
Still for that read-out and setting: the figure for `Cc1nc(C(F)(F)F)cn1C(C)C(=O)Nc1cnn(-c2ccc(F)cc2)c1OC(C)C` (stereo not drawn) [1.005] is 100 to 10000 nM.
Still for that read-out and setting: as for `CCOc1c(NC(=O)C(C)n2cc(C(F)(F)F)nc2C)cnn1-c1ccc(F)cc1` (stereo not drawn) [1.006], the figure is 100 to 10000 nM; as for `Cc1c(Cl)c(C(F)(F)F)nn1C(C)(C)C(=O)Nc1cnn(-c2ccc(F)cc2)c1C(C)C` [1.007], 100 to 10000 nM; as for `Cc1nc(C(F)(F)F)nn1C(C)C(=O)Nc1cnn(-c2ccc(F)cc2)c1C(C)C` (stereo not drawn) [1.008], 100 to 10000 nM.
As for `Cc1nc(C(F)(F)F)cn1C(C)C(=O)Nc1cnn(-c2ccc(F)cc2)c1C(C)C` (stereo not drawn) [1.009], the 50% inhibitory concentration (IC50) on CCR1 is ≤ 100 nM.
For `Cc1nc(C(F)(F)F)nn1C(C)C(=O)Nc1cnn(-c2ccc(Cl)cc2)c1C(C)C` (stereo not drawn) [1.010], the concentration for half-maximal inhibition (IC50) against CCR1 was ≤ 100 nM.
As to `Cc1nc(C(F)(F)F)cn1C(C)C(=O)Nc1cnn(-c2ccc(Cl)cc2)c1C(C)C` (stereo not drawn) [1.011], the half-maximal inhibitory concentration (IC50) against CCR1 is ≤ 100 nM.
On the same count and under the same terms, as for `Cc1nc(C(F)(F)F)c2n1C(C(=O)Nc1cnn(-c3ccc(Cl)cc3)c1C(C)C)CCC2` (stereo not drawn) [1.012], the figure is ≤ 100 nM; as for `Cc1nc(C(F)(F)F)cn1C(C)C(=O)Nc1cnn(-c2ccc(F)cc2)c1C(C)(C)C` (stereo not drawn) [1.013], 100 to 10000 nM; as for `Cc1c(Cl)c(C(F)(F)F)nn1C(CCCCO)C(=O)Nc1cnn(-c2ccc(F)cc2)c1C(C)C` (stereo not drawn) [1.014], 100 to 10000 nM.
Regarding `Cc1nc(C(F)(F)F)cn1C(C)C(=O)Nc1cnn(-c2ccc(Cl)cc2)c1C(C)C` (stereo not drawn) [1.015], at CCR1, the IC50 is ≤ 100 nM.
As for `Cc1c(Cl)c(C(F)(F)F)nn1C(C)C(=O)Nc1cnn(-c2ccc(F)cc2)c1C(C)C` (stereo not drawn) [1.016], the IC50 against CCR1 was ≤ 100 nM. The “reduction in the number of inflammatory cells recruited to the inflamed synovial fluid of the knee joints” value in test [1] was “significant reduction in recruited inflammatory cells”.
On to `CCC(C(=O)Nc1cnn(-c2ccc(F)cc2)c1C(C)C)n1nc(C(F)(F)F)c(Cl)c1C` (stereo not drawn) [1.017], for which, at CCR1, the IC50 is ≤ 100 nM.
On the same count and under the same terms, the figure for `Cc1nc(C(F)(F)F)cn1C(C)C(=O)Nc1cnn(-c2ccc(F)cc2)c1C(C)C` (stereo not drawn) [1.018] is ≤ 100 nM; for `CCC(C(=O)Nc1cnn(-c2ccc(F)cc2)c1C(C)C)n1cc(C(F)(F)F)nc1C` (stereo not drawn) [1.019] it is ≤ 100 nM.
Same read-out and setting: as for `Cc1c(NC(=O)Cn2nc(C(F)(F)F)c(Cl)c2C)ncn1-c1ccc(F)cc1` [1.020], the figure is 100 to 10000 nM; as for `Cc1c(Cl)c(C(F)(F)F)nn1CC(=O)Nc1cnn(-c2ccc(F)cc2)c1-c1ccccc1` [1.021], 100 to 10000 nM.
With `Cc1c(Cl)c(C(F)(F)F)nn1CC(=O)Nc1cnn(-c2ccc(F)cc2)c1C(C)C` [1.022], the IC50 at CCR1 is ≤ 100 nM.
Same read-out and setting: as for `CCc1c(NC(=O)Cn2nc(C(F)(F)F)c(Cl)c2C)cnn1-c1ccc(F)cc1` [1.023], the figure is 100 to 10000 nM; as for `Cc1nc(C(F)(F)F)cn1C(C)C(=O)Nc1cnn(-c2ccc(F)cc2)c1C` (stereo not drawn) [1.024], 100 to 10000 nM.
Still for that read-out and setting: as for `Cc1c(Cl)c(C(F)(F)F)nn1CC(=O)Nc1cnn(-c2ccc(F)cc2)c1C` [1.025], the figure is 100 to 10000 nM; as for `Cc1c(Cl)c(C(F)(F)F)nn1CC(=O)N(C)c1cnn(-c2ccc(F)cc2)c1` [1.026], 100 to 10000 nM; as for `Cc1c(Cl)c(C(F)(F)F)nn1CC(=O)Nc1cnn(-c2ccc(F)cc2)c1` [1.027], 100 to 10000 nM.
Same read-out and setting: the figure for `Cc1nc(C(F)(F)F)cn1C(C)C(=O)Nc1cnc(-c2ccc(Cl)cc2)n1C(C)C` (stereo not drawn) [1.028] is 100 to 10000 nM; for `Cc1nc(C(F)(F)F)cn1[C@@H](C)C(=O)Nc1cnn(-c2ccc(Cl)cc2)c1C1CCC1` [1.029] it is ≤ 100 nM.
